The test addresses T1, Vaccinia virus capping enzyme (VCE) (Vaccinia virus, UniProt P04298).
T1 construct: purchased CellScript ScriptCap m^7G Capping System (catalogue number not given)
Format: biochemical. On the set-up: key to Capping efficiency: A: capping was observed; B: either capping was not observed, or the capping efficiency was low.
On to `C[n+]1cn([C@@H]2O[C@H](COP(=O)(O)OP(=O)(O)OP(=O)(O)O)[C@@H](O)[C@H]2O)c2nc(N)[nH]c(=O)c21` [compound 1, N7-Methylguanosine-5′-triphosphate], for which the Capping efficiency entry is “A” and the “Capping efficiency (in words)” value is on record as “favorable”. Consider `Nc1[nH]c(=O)nc2c1ncn2[C@@H]1O[C@H](COP(=O)(O)OP(=O)(O)OP(=O)(O)O)[C@@H](O)[C@H]1O` [compound 7, Isoguanosine-5′-triphosphate], for which the Capping efficiency entry was “B”. Same read-out and setting: as for “2′/3′-O-(2-Aminoethyl-carbamoyl)-Guanosine-5′-triphosphate [compound 22]”, the entry is “A”; as for `Nc1nc2c(ncn2[C@H]2CC[C@@H](COP(=O)(O)OP(=O)(O)OP(=O)(O)O)O2)c(=O)[nH]1` [compound 12, 2′,3′-Dideoxyguanosine-5′-triphosphate], “B”. In the case of `Nc1nc2c(ccn2[C@@H]2O[C@H](COP(=O)(O)OP(=O)(O)OP(=O)(O)O)[C@@H](O)[C@H]2O)c(=O)[nH]1` [compound 4, 7-Deazaguanosine-5′-Triphosphate], the Capping efficiency entry is “B”. The same measure, in the same setting: as for `O=c1[nH]c(=O)c2ncn([C@@H]3O[C@H](COP(=O)(O)OP(=O)(O)OP(=O)(O)O)[C@@H](O)[C@H]3O)c2[nH]1` [compound 10, Xanthosine-5′-Triphosphate], the entry is “B”. As for `Nc1ncnc2c1ncn2[C@@H]1O[C@H](COP(=O)(O)OP(=O)(O)OP(=O)(O)O)[C@@H](O)[C@H]1O` [compound 8, Adenosine-5′-triphosphate], the Capping efficiency entry is listed as “B”. On the same count and under the same terms, the value for `Nc1nc2c(C3OC(COP(=O)(O)OP(=O)(O)OP(=O)(O)O)C(O)C3O)scc2c(=O)[nH]1` (stereo not drawn) [compound 5, Thienoguanosine-5′-Triphosphate] was “B”.

The values above are taken from patent US20220170062A1, “RNA CAPPING METHOD, PRODUCTION METHOD FOR MODIFIED RNA, AND MODIFIED RNA” (priority 2019, published 2022).
